ChEMBL document CHEMBL1138671, “Structure-based design, synthesis, and evaluation of conformationally constrained mimetics of the second mitochondria-derived activator of caspase that target the X-linked inhibitor of apoptosis protein/caspase-9 interaction site” (J Med Chem, 2004)

Biological target: E3 ubiquitin-protein ligase XIAP (Homo sapiens, UniProt P98170)
Experiment: Binding affinity for the recombinant XIAP BIR3 protein in displacing a fluorescently labeled Smac peptide

Chain of E3 ubiquitin-protein ligase XIAP (P98170 whole entry): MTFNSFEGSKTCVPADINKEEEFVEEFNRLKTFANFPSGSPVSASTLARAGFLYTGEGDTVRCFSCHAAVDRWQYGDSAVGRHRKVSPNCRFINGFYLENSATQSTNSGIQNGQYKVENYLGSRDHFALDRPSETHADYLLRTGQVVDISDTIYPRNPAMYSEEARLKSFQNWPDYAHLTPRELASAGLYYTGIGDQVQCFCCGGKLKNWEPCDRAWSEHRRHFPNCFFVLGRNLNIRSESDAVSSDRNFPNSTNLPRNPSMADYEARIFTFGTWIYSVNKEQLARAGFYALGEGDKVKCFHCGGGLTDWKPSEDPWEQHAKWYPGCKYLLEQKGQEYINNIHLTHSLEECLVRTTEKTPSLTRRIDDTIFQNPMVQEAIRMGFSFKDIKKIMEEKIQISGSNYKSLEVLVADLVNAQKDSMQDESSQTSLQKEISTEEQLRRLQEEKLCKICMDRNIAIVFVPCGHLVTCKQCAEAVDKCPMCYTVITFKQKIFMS

Ki | SMILES
> 100 µM | CCC[C@H](N)C(=O)NC1CC[C@H]2CC[C@@H](C(=O)NCc3ccccc3)N2C1=O (some centres not stated)
> 100 µM | C[C@H](N)C(=O)NC1CC[C@H]2CC[C@@H](C(=O)Nc3ccccc3)N2C1=O (some centres not stated)
